From patent US11565005B2, “Dota-hapten compositions for anti-dota/anti-tumor antigen bispecific antibody pretargeted radioimmunotherapy” (MEMORIAL SLOAN KETTERING CANCER CENTER, priority 2017, dated 2023)
“And” between values parts separate entries of the source, which are not always exact repeats. Equal values may be shown once. Read-outs that look alike come from different tables or passages of the source.

Assays:
[1] = target: anti-DOTA-hapten antibody single chain variable fragment C825; conditions: mean ±SD, read-out: Kd (equilibrium dissociation constant) of C825, cited from earlier work
SW1222 tumor = assay: In vivo competition study: maximum tumor uptake of pretargeted DOTA-hapten; set-up: species or system mice
Description: In addition to studies with tracer doses of radiolabeled Proteus-DOTA, the upper limit for absolute tumor uptake of radiolabeled Proteus-DOTA was determined using in vivo competition studies. Biodistribution experiments were conducted 24 h following dosing of groups of tumor bearing mice with wide mass range of Proteus-DOTA spanning 2 orders of magnitude (˜170-33800 pmol), showing maximum tumor uptake (“Bmax”) of ˜60 pmol DOTA-hapten/gram of SW1222 tumor. […] Based on a maximum tumor uptake of pretargeted Proteus-DOTA of 62 pmol per gram of SW1222 tumor, ˜180 nCi of ^225Ac could be localized per gram of tumor at SA that are currently achieved with quantitative RCY.

[2] = Dynamic PET imaging and ex vivo biodistribution of [^68Ga]Proteus-DOTA in mice bearing NCI-N87 tumors; set-up: species or system nude mice
From the text: Decay-corrected blood and kidney time-activity curves (TAC) are shown for two individual mice. The blood-TAC for each of the animals was separately curve-fitted to a non-linear two phase decay equation. The (i) percent fast, (ii) half life (slow; minutes), (iii) half-life (fast; minutes), and (iv) R^2 values for mouse 1/mouse 2 were: 46/56, 13.2/13.7, 1.4/0.94, and 0.95/0.99, respectively.
PET Imaging and Biodistribution Studies with […]. […] Nude mice bearing HER2-expressing NCI-N87 human gastric carcinoma subcutaneous xenografts (n=4) were injected with 113-140 μCi ([…]) [^68Ga]Proteus-DOTA and imaged with dynamic positron-emission imaging for […] post-injection (p.i.) (n=2), or with static imaging at 1 h p.i. (n=4). All animals were then sacrificed at 2 hours post injection for ex vivo biodistribution analysis. The list-mode data was histogrammed using the following protocol: 12×10 seconds, 6×30 seconds, 5×60 seconds, 4×300 seconds, 30 min, resulting in […]. Regions-of-interest were drawn around heart (for blood as cardiac outflow) and kidney to determine activity concentrations (as % ID/g).

[3] = Blood half-life and biodistribution of [^111In]Proteus-DOTA in tumor-free nude mice; format: in vivo, athymic nu/nu female mice
Description: The blood half-life of surrogate [^111In] Proteus-DOTA was determined. Dotted line indicates nonlinear two phase decay analysis used to calculate half-life (R^2=0.913). Data is presented as mean ±SD.
(n=5 mice; given i.v.) in tumor-free healthy athymic nu/nu female mice.
Preparation of [^111In]Proteus-DOTA. Using similar radiochemical methods, [^111In]Proteus-DOTA was prepared from [^111In]indium chloride (Nuclear Diagnostic Products, Inc., Rockaway, N.J.; 249 MBq [6.73 mCi]) and 150 μL of 10 mg/mL Proteus-DOTA (1.5 mg; 1.11 μmoles). The [^111In]Proteus-DOTA yield was >98% and the final Specific Activity was 162.8 GBq/g [4.4 Ci/g] or 2.28 E5 GBq/mol [6160 Ci/mol]. This preparation was used for pharmacokinetic studies. Prior to administration into mice, the [^111In]Proteus-DOTA was purified using a Strata™-X cartridge (33 μm Polymeric Reversed Phase C-18 30 mg/l mL #8B-S100-TAK, Phenomenex® Inc., Torrance, Calif. USA) as described for [^68Ga]Proteus-DOTA and the radiochemical purity was verified to be >98% either using an in vitro binding assay with excess BsAb or by analytical reverse-phase HPLC coupled with radiodetection.
A biodistribution assay conducted at 240 min p.i.

[4] = system: GPA33-expressing SW1222 xenografts; conditions: anti-GPA33-DOTA-PRIT, 10-50 pmol, 24 hours p.i.; cited from earlier work
[5] = system: GD2-expressing IMR-32 human neuroblastoma xenografts; assay: Anti-GD2-DOTA-PRIT pretargeting biodistribution, ^225Ac- vs ^177Lu-DOTA-Bn; format: in vivo, athymic nude mice; conditions: pretargeted with hu3F8-C825 + clearing agent, 24 hours post-injection
Description: Female athymic nude mice bearing subcutaneous GD2-expressing IMR-32 human neuroblastoma xenografts in the right-hand flank were injected intravenously (i.v.) via the lateral tail-vein with three separate reagents: (1) hu3F8-C825 (0.25 mg, 1.19 nmol) [t=−28 hours (h)], followed by (2) 0.1 mg 500 kD-dextran-DOTA-Bn(Y) (0.2 nmol of CA; 146 DOTA-Bn(Y)/mol of dextran, 29 nmol of DOTA-Bn(Y)) [t=−4 h] and (3) an equimolar amount of either ^177Lu- or ^225Ac-DOTA-Bn (50 μCi and 100 μCi of ^177Lu and ^225Ac, respectively, 8-10 pmol) at [t=0 h]. Mice were sacrificed at 24 h post-injection of radiotracer for biodistribution assay of tumor and select normal tissues. The average tumor masses were as follows (presented as average ±SD): 0.77±0.62 g and 0.49±0.28 g for ^177Lu and ^225Ac cohorts, respectively. Activity concentration data are expressed as the mean % ID/g standard error of the mean (SEM). Errors for the tumor-to-tissue ratios are calculated as the geometric mean of the standard errors of the mean. Student's t-test p-values highlighted in bold are considered significant (p<0.05).

[6] = biphasic, nonlinear two phase decay, R^2=0.913

Nc1ccc(CC2CN(CC(=O)[O-])CCN(CC(=O)O)CCN(CC(=O)[O-])CCN2CC(=O)[O-])cc1.[Lu+3] (stereo not drawn) [DOTA-Bn complex of Lu, S-2-(4-aminobenzyl)-1,4,7,10-tetraazacyclododecane tetraacetic acid chelate]
Kd ([1]; listed as benzyl-DOTA (Lu) hapten): 0.01 nM
Kd [1]: 0.0108 ± 0.0025 nM

O=C([O-])CN1CCN(CC(=O)[O-])CCN(CC(=O)NCCOCCOCCOCCOCCNC(=S)Nc2ccc(CC3CN(CC(=O)[O-])CCN(CC(=O)[O-])CCN(CC(=O)[O-])CCN3CC(=O)[O-])cc2)CCN(CC(=O)[O-])CC1.[Lu+3] (stereo not drawn) [Proteus-DOTA]
^225Ac that could be localized per gram of tumor (SW1222 tumor; based on 62 pmol per gram at currently achieved SA): ~180 nCi
maximum tumor uptake ("Bmax") (SW1222 tumor; pretargeted, 24 h after dosing, ~170-33800 pmol): ~60 pmol DOTA-hapten/gram of SW1222 tumor and 62 pmol DOTA-hapten/gram of SW1222 tumor

O=C([O-])CN1CCN(CC(=O)[O-])CCN(CC(=O)NCCOCCOCCOCCOCCNC(=S)Nc2ccc(CC3CN(CC(=O)[O-])CCN(CC(=O)[O-])CCN(CC(=O)[O-])CCN3CC(=O)[O-])cc2)CCN(CC(=O)[O-])CC1.[68Ga+3].[Lu+3] (stereo not drawn) [[^68Ga]Proteus-DOTA]
Blood activity concentration ([2]; 2 h p.i., n = 4): 2.29 ± 0.31 % ID/g
Bone activity concentration ([2]; 2 h p.i., n = 4): 0.39 ± 0.07 % ID/g
Heart activity concentration ([2]; 2 h p.i., n = 4): 0.75 ± 0.10 % ID/g
Kidneys activity concentration ([2]; 2 h p.i., n = 4): 1.53 ± 0.50 % ID/g
Large Intestine activity concentration ([2]; 2 h p.i., n = 4): 0.44 ± 0.10 % ID/g
Liver activity concentration ([2]; 2 h p.i., n = 4): 1.19 ± 0.08 % ID/g
Lungs activity concentration ([2]; 2 h p.i., n = 4): 1.00 ± 0.13 % ID/g
Muscle activity concentration ([2]; 2 h p.i., n = 4): 0.17 ± 0.03 % ID/g
Small Intestine activity concentration ([2]; 2 h p.i., n = 4): 0.59 ± 0.21 % ID/g
Spleen activity concentration ([2]; 2 h p.i., n = 4): 0.56 ± 0.13 % ID/g
Stomach activity concentration ([2]; 2 h p.i., n = 4): 0.19 ± 0.05 % ID/g
Tumor activity concentration ([2]; NCI-N87 tumor, 2 h p.i., n = 4): 0.65 ± 0.08 % ID/g
blood half life (slow) ([2]; mouse 1, two phase decay fit): 13.2 min
blood half-life (fast) ([2]; mouse 1, two phase decay fit): 1.4 min
blood time-activity curve, percent fast ([2]; mouse 1, two phase decay fit): 46
blood half life (slow) ([2]; mouse 2, two phase decay fit): 13.7 min
blood half-life (fast) ([2]; mouse 2, two phase decay fit): 0.94 min
blood time-activity curve, percent fast ([2]; mouse 2, two phase decay fit): 56

O=C([O-])CN1CCN(CC(=O)[O-])CCN(CC(=O)NCCOCCOCCOCCOCCNC(=S)Nc2ccc(CC3CN(CC(=O)[O-])CCN(CC(=O)[O-])CCN(CC(=O)[O-])CCN3CC(=O)[O-])cc2)CCN(CC(=O)[O-])CC1.[111In+3].[Lu+3] (stereo not drawn) [[^111In]Proteus-DOTA]
kidney retention (percent injected activity per gram of tissue) ([3]; 240 min p.i., i.v., n=5, mean ±SD): 0.96±0.25 % IA/g
remaining ^111In-activity in carcass after tissue dissection ([3]; 240 min p.i., n=5, mean ±SD): 0.952±0.162 % ID
share of alpha phase of blood clearance ([3]; biphasic, nonlinear two phase decay): 87.7%
blood half-life (alpha) [3, 6]: 7.49 min
blood half-life (beta) [3, 6]: 24.8 min

Nc1ccc(CC2CN(CC(=O)[O-])CCN(CC(=O)[O-])CCN(CC(=O)[O-])CCN2CC(=O)[O-])cc1.[86Y+3] (stereo not drawn) [^86Y-DOTA-Bn]
mean tumor uptake [4]: ~8 % ID/g

Nc1ccc(CC2CN(CC(=O)[O-])CCN(CC(=O)[O-])CCN(CC(=O)[O-])CCN2CC(=O)[O-])cc1.[177Lu+3] (stereo not drawn) [^177Lu-DOTA-Bn]
mean tumor uptake [4]: ~8 % ID/g
maximum tumor uptake (SW1222 tumor; pretargeted, same system, i.v. administered dose of 600 pmol): ~60 pmol/g
Blood uptake [5]: 0.49±0.09 % ID/g
kidney uptake [5]: 0.83±0.10 % ID/g
tumor uptake ([5]; IMR-32 xenograft, n=5): 10.29±2.87 % ID/g
